The text below walks through data of patent publication US5599812A, “Tricyclic pyrrolopyrazine 5-HT3 -active compounds” (Adir Et Compagnie, priority 1993, dated 1997).

Series [1] concerns the target T1, 5-HT3 receptors (Rattus norvegicus, UniProt P35563).
T1 construct: bradycardia induced by stimulation of 5-HT3 receptors on vagal afferent neurons; from tissue; host or cells: whole anesthetized rat; receptors on vagal afferent neurons
T1 sequence (P35563 24-483): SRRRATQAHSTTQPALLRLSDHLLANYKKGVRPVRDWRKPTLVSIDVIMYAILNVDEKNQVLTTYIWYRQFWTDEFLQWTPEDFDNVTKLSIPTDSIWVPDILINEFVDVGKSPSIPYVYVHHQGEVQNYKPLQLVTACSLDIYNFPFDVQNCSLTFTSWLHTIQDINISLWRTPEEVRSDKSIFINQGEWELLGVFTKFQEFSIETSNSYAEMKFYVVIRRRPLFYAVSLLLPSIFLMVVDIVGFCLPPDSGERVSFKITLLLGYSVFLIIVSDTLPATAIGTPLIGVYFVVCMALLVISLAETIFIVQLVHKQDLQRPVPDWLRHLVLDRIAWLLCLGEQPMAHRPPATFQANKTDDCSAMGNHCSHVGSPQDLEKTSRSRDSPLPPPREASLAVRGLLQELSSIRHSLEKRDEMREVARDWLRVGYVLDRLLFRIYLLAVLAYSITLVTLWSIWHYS
Description: Bradycardic Bezold-Jarisch reflex in anesthetized rats. The format is in vivo, Sprague-Dawley. Particulars: for dose completely preventing the agonist-induced bradycardia: prior i.v. administration, against 30 μg i.v. agonist; for fall in the cardiac rhythm / duration of the fall in the cardiac rhythm: i.v. injection of 30 μg; for duration of the fall in the cardiac rhythm: approximately. As to the method: Bradycardia (Bezold-Jarisch reflex) is induced by the intravenous injection of 5-HT3 serotonin in rats anesthetized with urethane.
This response consists of a violent but transitory bradycardia induced by stimulation of 5-HT3 receptors on vagal afferent neurons.
The animal (adult male rat, Sprague-Dawley strain, 250-300 g) is first of all anesthetized with urethane (1.4 g/kg i.p.) and then a tracheotomy is performed in order to implant a tracheal cannula. A catheter (0.3 mm)is introduced into the abdominal aorta via the femoral artery for the continuous recording of the arterial pressure and the cardiac rhythm.
Bradycardia is expressed as percentage of lowering (maximum) of the base rhythm, before any treatment (means±M.S.D.).

Series [2] has as its target T2, 5-HT3 receptors (Mus musculus, UniProt P23979).
T2 sequence (P23979 24-489): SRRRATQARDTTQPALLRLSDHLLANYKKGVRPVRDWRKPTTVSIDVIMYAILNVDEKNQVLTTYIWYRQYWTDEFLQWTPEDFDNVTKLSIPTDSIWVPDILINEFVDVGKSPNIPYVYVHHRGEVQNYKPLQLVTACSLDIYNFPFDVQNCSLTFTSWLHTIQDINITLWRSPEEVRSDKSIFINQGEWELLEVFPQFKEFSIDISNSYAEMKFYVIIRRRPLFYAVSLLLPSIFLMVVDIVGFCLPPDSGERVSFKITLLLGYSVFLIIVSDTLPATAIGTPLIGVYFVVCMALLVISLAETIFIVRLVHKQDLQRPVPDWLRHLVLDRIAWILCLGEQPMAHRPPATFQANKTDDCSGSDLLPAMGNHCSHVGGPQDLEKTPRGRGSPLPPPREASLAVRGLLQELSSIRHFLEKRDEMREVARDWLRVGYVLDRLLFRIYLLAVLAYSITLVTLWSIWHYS
Description: Accumulation of 14C-guanidinium in NG 108-15 cells. Particulars: for multiplication of the intracellular accumulation of 14C-guanidinium: fold, agonist at 10 μM-0.1 mM. The method, then:
The accumulation of ^14 -C-guanidinium in NG 108-15 cells is measured and makes it possible to study the interaction of the tested compounds with 5-HT3 receptors, knowing that this accumulation is stimulated by agonists of 5-HT3 receptors.
The NG 108-15 hybrid clone (neuroblastoma-glioma) is cultured under standard conditions (Dulbecco's medium to which 40 mM of sodium bicarbonate, 1.8 mM of L-glutamine, 0.1 mM of hypoxanthine, 1 μM of aminopterin, 16 μM of thymine and 10% of fetal calf serum are added) at 37° C. in an atmosphere enriched in CO2 (7%). At confluence (.congruent.3.5×10^5 cells in dishes with diameters of 35 mm), the culture medium is sucked off and the cell lawn is rapidly washed with 3 cm^3 of a HEPES (20 mM) buffer containing 145 mM of NaCl, 5.4 mM of KCl, 1.8 mM of CaCl2, 1.0 mM of MgCl2 and 20 mM of glucose, pH 7.4. […] The incubation lasts 10 minutes at 37° C. The medium is then sucked off and the cells are rapidly washed twice with 3 cm^3 of the washing buffer in which the NaCl has been fully replaced by an equimolar concentration of choline chloride. Finally, the cell lawn is taken up in 0.5 cm^3 of 0.4N sodium hydroxide solution and the accumulated radioactivity is counted by spectrometry in liquid medium (Aquasol).

The nature of series [3]: Solubility in DMSO (NMR remark). It counts as physicochemical. The following applies: d6-DMSO, tetrahydrochloride.
Setting [4] is: doses (I.V.) 30, 60 and 120 μg·Kg^-1 (one value given).

With `COc1cc(N)c(Cl)cc1C(=O)NC1CN2CCC1CC2` (stereo not shown) [zacopride], in series [1], the “dose completely preventing the agonist-induced bradycardia” value was determined as 1 µg/kg.
Consider `Cc1[nH]c2ccc(O)cc2c1CCN` [2-methyl-5-hydroxytryptamine], for which the “multiplication of the intracellular accumulation of 14C-guanidinium” value in series [2] stood at 5. In series [1], the “fall in the cardiac rhythm” value was -80% and the “duration of the fall in the cardiac rhythm” value lay in the range of 4 to 5 s.
As for `Cc1nccn1CC1CCc2c(c3ccccc3n2C)C1=O` (stereo not shown) [ondansetron], the “dose completely preventing the agonist-induced bradycardia” value in series [1] was 1 µg/kg.
`c1ccc(CN2CCN(c3ccc4nc(N5CCN(Cc6ccccc6)CC5)c5cccn5c4n3)CC2)cc1` [Example 93, 2,6-bis(4-benzylpiperazino)pyrido[3,2-e]pyrrolo[1,2-a]pyrazine]: the “solubility in DMSO” value in series [3] was “insoluble”.
For `Clc1ccc2c(c1)nc(N1CCN(Cc3ccccc3)CC1)c1cccn12` [Example 3, 4-(4-benzylpiperazino)-7-chloropyrrolo[1,2-a]quinoxaline], in series [2], the response was half-maximal at 50 nM (EC50). The “Agonist Effect, Bradycardia %” value in series [1] (setting [4]) was found to be 0%.
Regarding `NCCc1c[nH]c2ccc(O)cc12` [serotonin], the “multiplication of the intracellular accumulation of 14C-guanidinium” value in series [2] is on record as 5. Moreover, the “Agonist Effect, Bradycardia %” value in series [1] (dose (I.V.) 30 μg·Kg^-1, n = 21, maximum lowering of base rhythm, means ± M.S.D.) is on record as 68.0 ± 2.3%. In series [1], the “fall in the cardiac rhythm” value is -80% and the “duration of the fall in the cardiac rhythm” value is 4 to 5 s.
Take `Fc1ccc(CN2CCN(c3nc4cc(Cl)ccc4n4cccc34)CC2)cc1` [Example 4, 7-CHLORO-4-[4-(4-FLUOROBENZYL)PIPERAZINO]PYRROLO[1,2-a]QUINOXALINE]: the EC50 (in general, the concentration giving half of the maximal effect) in series [2] was determined as 100 nM. In series [2] (antagonist effect, 14C-guanidinium accumulation, NG 108-15 cells), the “Antagonist effect at (concentration)” value stood at 3 nM. Further, in series [1] (setting [4]), the “Agonist Effect, Bradycardia %” value amounted to 0%.
In series [2], `c1ccc(CN2CCN(c3nc4cccnc4n4cccc34)CC2)cc1` [Example 11, 6-(4-benzylpiperazino)pyrido[3,2-e]pyrrolo [1,2-a]pyrazine] showed an EC50 of 30 nM. Besides, the “Antagonist effect at (dose)” value in series [1] (I.V., rat, Bezold-Jarisch reflex) was determined as 120 µg/kg. Moreover, the “Agonist Effect, Bradycardia %” value in series [1] (dose (I.V.) 120 μg·Kg^-1, n = 7, maximum lowering of base rhythm, means ± M.S.D.) came to 59.4 ± 7.2%.
`c1ccc(CN2CCN(c3nc4ccccc4n4cccc34)CC2)cc1` [Example 1, 4-(4-benzylpiperazino)pyrrolo[1,2-a]quinoxaline]: the EC50 in series [2] was about 100 nM.
